Assay results taken from patent US9034793B2, “Use of ribose to enhance plant growth” (Bioenergy, Inc., priority 2002, dated 2015).

Test system: bean seeds
Test: Plant growth and yield from bean seeds, daylight or darkness (Example 2)
Assay type: in vivo
Method: Three different treatments were explored on bean seeds to determine the effects of ribose (at two different doses) on plant growth and proliferation. [The three treatments include control (plain water), a 0.1332 M solution of ribose (5 g D-ribose dissolved in 250 ml water), and a 0.0666 M solution of ribose (5 g D-ribose dissolved in 500 ml water)]. The plants were kept under two different conditions, normal daylight and darkness. A total of six plants will be tested, with the conditions that each plant were tested at listed below. Treatments: [table] Each seed was planted under identical conditions (soil and pot size) and all at the same time. The environmental conditions (such as temperature and humidity), except for lighting, were kept constant for all the plants. Once potted, each seed received one to two tablespoons of treatment liquid (as mentioned above). A daily record was kept of the activity of each plant. Watering was done on every other day (or sooner if the soil was deemed too dry by the researcher), each again receiving one tablespoon of treatment liquid. Assessment of the effects of ribose fertilization was determined by measuring the time to the first appearance of a plant from the soil, the rate of growth, and leaf size. Table 3 represents the accumulated plant growth data from Example 2 and FIGS. 3 and 4 are graphic presentations of plant growth during light and dark conditions.

**Q.** Which results are given for `O=C[C@H](O)[C@H](O)[C@H](O)CO` [5/250, D-ribose]?
**A.** Amount of Growth Between Measurements (Dark, Day 0 (17-Sep)): 0; Plant growth-height (Dark, Day 0 (17-Sep)): 0; Rate of Growth Between Measurements (Dark, Day 0 (17-Sep)): 0; Amount of Growth Between Measurements (Dark, Day 3 (20-Sep)): 0; Plant growth-height (Dark, Day 3 (20-Sep)): 0; Rate of Growth Between Measurements (Dark, Day 3 (20-Sep)): 0; Amount of Growth Between Measurements (Dark, Day 5 (22-Sep)): 0; Plant growth-height (Dark, Day 5 (22-Sep)): 0; Rate of Growth Between Measurements (Dark, Day 5 (22-Sep)): 0; Rate of Growth Overall Thru Date (Dark, Day 5 (22-Sep)): 0; Amount of Growth Between Measurements (Dark, Day 7 (24-Sep)): 4.4; Plant growth-height (Dark, Day 7 (24-Sep)): 4.4; Rate of Growth Between Measurements (Dark, Day 7 (24-Sep)): 2.20; Rate of Growth Overall Thru Date (Dark, Day 7 (24-Sep)): 0.63; Amount of Growth Between Measurements (Dark, Day 8 (25-Sep)): 4.1; Plant growth-height (Dark, Day 8 (25-Sep)): 8.5; Rate of Growth Between Measurements (Dark, Day 8 (25-Sep)): 4.10; Rate of Growth Overall Thru Date (Dark, Day 8 (25-Sep)): 1.06; Amount of Growth Between Measurements (Dark, Day 9 (26-Sep)): 4.7; Plant growth-height (Dark, Day 9 (26-Sep)): 13.2; Rate of Growth Between Measurements (Dark, Day 9 (26-Sep)): 4.70; Rate of Growth Overall Thru Date (Dark, Day 9 (26-Sep)): 1.47; Amount of Growth Between Measurements (Dark, Day 10 (27-Sep)): 2.1; Plant growth-height (Dark, Day 10 (27-Sep)): 15.3; Rate of Growth Between Measurements (Dark, Day 10 (27-Sep)): 2.10; Rate of Growth Overall Thru Date (Dark, Day 10 (27-Sep)): 1.53; Amount of Growth Between Measurements (Dark, Day 11 (28-Sep)): 2.3; Plant growth-height (Dark, Day 11 (28-Sep)): 17.6; Rate of Growth Between Measurements (Dark, Day 11 (28-Sep)): 2.30; Rate of Growth Overall Thru Date (Dark, Day 11 (28-Sep)): 1.60; Amount of Growth Between Measurements (Dark, Day 12 (29-Sep)): 2; Plant growth-height (Dark, Day 12 (29-Sep)): 19.6; Rate of Growth Between Measurements (Dark, Day 12 (29-Sep)): 2.00; Rate of Growth Overall Thru Date (Dark, Day 12 (29-Sep)): 1.63; Amount of Growth Between Measurements (Dark, Day 13 (30-Sep)): 1.5; Plant growth-height (Dark, Day 13 (30-Sep)): 21.1; Rate of Growth Between Measurements (Dark, Day 13 (30-Sep)): 1.50; Rate of Growth Overall Thru Date (Dark, Day 13 (30-Sep)): 1.62; Amount of Growth Between Measurements (Dark, Day 16 (3-Oct)): 3.6; Plant growth-height (Dark, Day 16 (3-Oct)): 24.7; Rate of Growth Between Measurements (Dark, Day 16 (3-Oct)): 1.20; Rate of Growth Overall Thru Date (Dark, Day 16 (3-Oct)): 1.54; Amount of Growth Between Measurements (Light, Day 0 (17-Sep)): 0; Plant growth-height (Light, Day 0 (17-Sep)): 0; Rate of Growth Between Measurements (Light, Day 0 (17-Sep)): 0; Amount of Growth Between Measurements (Light, Day 3 (20-Sep)): 0; Plant growth-height (Light, Day 3 (20-Sep)): 0; Rate of Growth Between Measurements (Light, Day 3 (20-Sep)): 0; Amount of Growth Between Measurements (Light, Day 5 (22-Sep)): 1.1; Plant growth-height (Light, Day 5 (22-Sep)): 1.1; Rate of Growth Between Measurements (Light, Day 5 (22-Sep)): 0.55; Rate of Growth Overall Thru Date (Light, Day 5 (22-Sep)): 0.22; Amount of Growth Between Measurements (Light, Day 7 (24-Sep)): 4.4; Plant growth-height (Light, Day 7 (24-Sep)): 5.5; Rate of Growth Between Measurements (Light, Day 7 (24-Sep)): 2.20; Rate of Growth Overall Thru Date (Light, Day 7 (24-Sep)): 0.79; Amount of Growth Between Measurements (Light, Day 8 (25-Sep)): 9.5; Plant growth-height (Light, Day 8 (25-Sep)): 15; Rate of Growth Between Measurements (Light, Day 8 (25-Sep)): 9.50; Rate of Growth Overall Thru Date (Light, Day 8 (25-Sep)): 1.88; Amount of Growth Between Measurements (Light, Day 9 (26-Sep)): 4.1; Plant growth-height (Light, Day 9 (26-Sep)): 19.1; Rate of Growth Between Measurements (Light, Day 9 (26-Sep)): 4.10; Rate of Growth Overall Thru Date (Light, Day 9 (26-Sep)): 2.12; Amount of Growth Between Measurements (Light, Day 10 (27-Sep)): 4; Plant growth-height (Light, Day 10 (27-Sep)): 23.1; Rate of Growth Between Measurements (Light, Day 10 (27-Sep)): 4.00; Rate of Growth Overall Thru Date (Light, Day 10 (27-Sep)): 2.31; Amount of Growth Between Measurements (Light, Day 11 (28-Sep)): 2.6; Plant growth-height (Light, Day 11 (28-Sep)): 25.7; Rate of Growth Between Measurements (Light, Day 11 (28-Sep)): 2.60; Rate of Growth Overall Thru Date (Light, Day 11 (28-Sep)): 2.34; Amount of Growth Between Measurements (Light, Day 12 (29-Sep)): 0.7; Plant growth-height (Light, Day 12 (29-Sep)): 26.4; Rate of Growth Between Measurements (Light, Day 12 (29-Sep)): 0.70; Rate of Growth Overall Thru Date (Light, Day 12 (29-Sep)): 2.20; Amount of Growth Between Measurements (Light, Day 13 (30-Sep)): 0.2; Plant growth-height (Light, Day 13 (30-Sep)): 26.6; Rate of Growth Between Measurements (Light, Day 13 (30-Sep)): 0.20; Rate of Growth Overall Thru Date (Light, Day 13 (30-Sep)): 2.05; Amount of Growth Between Measurements (Light, Day 16 (3-Oct)): 1.7; Plant growth-height (Light, Day 16 (3-Oct)): 28.3; Rate of Growth Between Measurements (Light, Day 16 (3-Oct)): 0.57; Rate of Growth Overall Thru Date (Light, Day 16 (3-Oct)): 1.77; Amount of Growth Between Measurements (Light, Day 19 (6-Oct)): −0.7; Plant growth-height (Light, Day 19 (6-Oct)): 27.6; Rate of Growth Between Measurements (Light, Day 19 (6-Oct)): −0.23; Rate of Growth Overall Thru Date (Light, Day 19 (6-Oct)): 1.45
